From US9144229B2, “Tissue specific expression of antibodies in chickens” (Synageva BioPharma Corp., priority 2002, dated 2015)

Test system: chicken embryonic stem cells
Experiment: Titration kill curve of chicken ES cells under puromycin or neomycin selection
Assay type: cell-based
Parameters: key to Morphology of cES cells: ES cells are present.; ES cells are differentiated.; gone: no morphologically recognizable cells are present
Procedure: In a preferred embodiment, the concentration of puromycin required for selecting transfected cells is calculated as a titration kill curve. Titration kill curves for chicken embryonic stem cells are established by exposing cells in culture to puromycin concentrations varying from 0.0 to 1.0 μg/ml for 10 days (Table 7) and neomycin concentrations varying from 0.0 to 200 μg/ml (Table 8). The medium is changed every 2 days and fresh puromycin or neomycin is added. […] Puromycin concentrations of 0.3-1.0 μg/ml are used for selection of the transfected cultures. Neomycin concentrations over 40 μg/ml eliminated all cES cells within 7 days (Table 8).

neomycin was tested, and the “Morphology of cES cells” value (neomycin 10 μg/ml, day 1) was “ES”, the “Morphology of cES cells” value (neomycin 10 μg/ml, day 2) was “ES” and the “Morphology of cES cells” value (neomycin 10 μg/ml, day 3) was “ES”. For the same substance, the “Morphology of cES cells” value (neomycin 10 μg/ml, day 4) was “ES”, the “Morphology of cES cells” value (neomycin 10 μg/ml, day 5) was “ES” and the “Morphology of cES cells” value (neomycin 10 μg/ml, day 6) was “ES”. For the same substance, the “Morphology of cES cells” value (neomycin 10 μg/ml, day 7) was “ES”, the “Morphology of cES cells” value (neomycin 10 μg/ml, day 8) was “ES” and the “Morphology of cES cells” value (neomycin 10 μg/ml, day 9) was “ES”. The “Morphology of cES cells” value (neomycin 10 μg/ml, day 10) was “ES”, the “Morphology of cES cells” value (neomycin 20 μg/ml, day 1) was “ES” and the “Morphology of cES cells” value (neomycin 20 μg/ml, day 2) was “ES”. For the same substance, the “Morphology of cES cells” value (neomycin 20 μg/ml, day 3) was “ES”, the “Morphology of cES cells” value (neomycin 20 μg/ml, day 4) was “ES” and the “Morphology of cES cells” value (neomycin 20 μg/ml, day 5) was “ES”. For the same substance, the “Morphology of cES cells” value (neomycin 20 μg/ml, day 6) was “ES”, the “Morphology of cES cells” value (neomycin 20 μg/ml, day 7) was “ES” and the “Morphology of cES cells” value (neomycin 20 μg/ml, day 8) was “ES”. The “Morphology of cES cells” value (neomycin 20 μg/ml, day 9) was “ES”, the “Morphology of cES cells” value (neomycin 20 μg/ml, day 10) was “ES” and the “Morphology of cES cells” value (neomycin 30 μg/ml, day 1) was “ES”. The “Morphology of cES cells” value (neomycin 30 μg/ml, day 2) was “ES”, the “Morphology of cES cells” value (neomycin 30 μg/ml, day 3) was “ES” and the “Morphology of cES cells” value (neomycin 30 μg/ml, day 4) was “ES”. For the same substance, the “Morphology of cES cells” value (neomycin 30 μg/ml, day 5) was “ES”, the “Morphology of cES cells” value (neomycin 30 μg/ml, day 6) was “ES” and the “Morphology of cES cells” value (neomycin 30 μg/ml, day 7) was “ES/Diff”. The “Morphology of cES cells” value (neomycin 30 μg/ml, day 8) was “ES/diff”, the “Morphology of cES cells” value (neomycin 30 μg/ml, day 9) was “Diff” and the “Morphology of cES cells” value (neomycin 30 μg/ml, day 10) was “Diff/”. For the same substance, the “Morphology of cES cells” value (neomycin 40 μg/ml, day 1) was “ES”, the “Morphology of cES cells” value (neomycin 40 μg/ml, day 2) was “ES” and the “Morphology of cES cells” value (neomycin 40 μg/ml, day 3) was “ES”. For the same substance, the “Morphology of cES cells” value (neomycin 40 μg/ml, day 4) was “ES”, the “Morphology of cES cells” value (neomycin 40 μg/ml, day 5) was “ES/Diff” and the “Morphology of cES cells” value (neomycin 40 μg/ml, day 6) was “Diff/”. The “Morphology of cES cells” value (neomycin 40 μg/ml, day 7) was “dead”, the “Morphology of cES cells” value (neomycin 40 μg/ml, day 8) was “gone” and the “Morphology of cES cells” value (neomycin 40 μg/ml, day 9) was “gone”. The “Morphology of cES cells” value (neomycin 40 μg/ml, day 10) was “gone”, the “Morphology of cES cells” value (neomycin 50 μg/ml, day 1) was “ES” and the “Morphology of cES cells” value (neomycin 50 μg/ml, day 2) was “ES”. For the same substance, the “Morphology of cES cells” value (neomycin 50 μg/ml, day 3) was “ES”, the “Morphology of cES cells” value (neomycin 50 μg/ml, day 4) was “ES/Diff” and the “Morphology of cES cells” value (neomycin 50 μg/ml, day 5) was “ES/Diff”. For the same substance, the “Morphology of cES cells” value (neomycin 50 μg/ml, day 6) was “Diff/”, the “Morphology of cES cells” value (neomycin 50 μg/ml, day 7) was “Dead/” and the “Morphology of cES cells” value (neomycin 50 μg/ml, day 8) was “gone”. The “Morphology of cES cells” value (neomycin 50 μg/ml, day 9) was “gone”, the “Morphology of cES cells” value (neomycin 50 μg/ml, day 10) was “gone” and the “Morphology of cES cells” value (neomycin 60 μg/ml, day 1) was “ES”. For the same substance, the “Morphology of cES cells” value (neomycin 60 μg/ml, day 2) was “ES”, the “Morphology of cES cells” value (neomycin 60 μg/ml, day 3) was “ES” and the “Morphology of cES cells” value (neomycin 60 μg/ml, day 4) was “gone”. For the same substance, the “Morphology of cES cells” value (neomycin 60 μg/ml, day 5) was “gone”, the “Morphology of cES cells” value (neomycin 60 μg/ml, day 6) was “gone” and the “Morphology of cES cells” value (neomycin 60 μg/ml, day 7) was “gone”. The “Morphology of cES cells” value (neomycin 60 μg/ml, day 8) was “gone”, the “Morphology of cES cells” value (neomycin 60 μg/ml, day 9) was “gone” and the “Morphology of cES cells” value (neomycin 60 μg/ml, day 10) was “gone”. The “Morphology of cES cells” value (neomycin 100 μg/ml, day 1) was “ES/Diff”, the “Morphology of cES cells” value (neomycin 100 μg/ml, day 2) was “Diff” and the “Morphology of cES cells” value (neomycin 100 μg/ml, day 3) was “dead”. The “Morphology of cES cells” value (neomycin 100 μg/ml, day 4) was “gone”, the “Morphology of cES cells” value (neomycin 100 μg/ml, day 5) was “gone” and the “Morphology of cES cells” value (neomycin 100 μg/ml, day 6) was “gone”. For the same substance, the “Morphology of cES cells” value (neomycin 100 μg/ml, day 7) was “gone”, the “Morphology of cES cells” value (neomycin 100 μg/ml, day 8) was “gone” and the “Morphology of cES cells” value (neomycin 100 μg/ml, day 9) was “gone”. The “Morphology of cES cells” value (neomycin 100 μg/ml, day 10) was “gone”, the “Morphology of cES cells” value (neomycin 150 μg/ml, day 2) was “dead” and the “Morphology of cES cells” value (neomycin 150 μg/ml, day 3) was “dead”. For the same substance, the “Morphology of cES cells” value (neomycin 150 μg/ml, day 4) was “gone”, the “Morphology of cES cells” value (neomycin 150 μg/ml, day 5) was “gone” and the “Morphology of cES cells” value (neomycin 150 μg/ml, day 6) was “gone”. For the same substance, the “Morphology of cES cells” value (neomycin 150 μg/ml, day 7) was “gone”, the “Morphology of cES cells” value (neomycin 150 μg/ml, day 8) was “gone” and the “Morphology of cES cells” value (neomycin 150 μg/ml, day 9) was “gone”. The “Morphology of cES cells” value (neomycin 150 μg/ml, day 10) was “gone”, the “Morphology of cES cells” value (neomycin 200 μg/ml, day 2) was “dead” and the “Morphology of cES cells” value (neomycin 200 μg/ml, day 3) was “gone”. For the same substance, the “Morphology of cES cells” value (neomycin 200 μg/ml, day 4) was “gone”, the “Morphology of cES cells” value (neomycin 200 μg/ml, day 5) was “gone” and the “Morphology of cES cells” value (neomycin 200 μg/ml, day 6) was “gone”. The “Morphology of cES cells” value (neomycin 200 μg/ml, day 7) was “gone”, the “Morphology of cES cells” value (neomycin 200 μg/ml, day 8) was “gone” and the “Morphology of cES cells” value (neomycin 200 μg/ml, day 9) was “gone”. For the same substance, the “Morphology of cES cells” value (neomycin 200 μg/ml, day 10) was “gone” and the “concentration that eliminated all cES cells” value (neomycin, within 7 days) was “over 40 μg/ml”.
